Legend:
[1] = target: C-C chemokine receptor type 8 (Homo sapiens, UniProt P51685); assay: Antagonist activity at human CCR8; format: functional
[2] = target: Voltage-gated inwardly rectifying potassium channel KCNH2 (Homo sapiens, UniProt Q12809, T623S); assay: Inhibition of human recombinant ERG T623S mutant expressed in CHOK1 cells by whole-cell plate-based electrophysiology; conditions: cho-k1
[3] = target: Voltage-gated inwardly rectifying potassium channel KCNH2 (Homo sapiens, UniProt Q12809, F656T); assay: Inhibition of human recombinant ERG F656T mutant expressed in CHOK1 cells by whole-cell plate-based electrophysiology; conditions: cho-k1
[4] = target: Voltage-gated inwardly rectifying potassium channel KCNH2 (Homo sapiens, UniProt Q12809, S624T); assay: Inhibition of human recombinant ERG S624T mutant expressed in CHOK1 cells by whole-cell plate-based electrophysiology; conditions: cho-k1
[5] = target: Voltage-gated inwardly rectifying potassium channel KCNH2 (Homo sapiens, UniProt Q12809, Y652F); assay: Inhibition of human recombinant ERG Y652F mutant expressed in CHOK1 cells by whole-cell plate-based electrophysiology; conditions: cho-k1
[6] = target: T1, Voltage-gated inwardly rectifying potassium channel KCNH2 (Homo sapiens, UniProt Q12809); assay: Displacement of [3H]dofetilide from human recombinant ERG expressed in HEK293 cells by patch clamp method
[7] = target: Voltage-gated inwardly rectifying potassium channel KCNH2 (Homo sapiens, UniProt Q12809, S624A); assay: Inhibition of human recombinant ERG S624A mutant expressed in CHOK1 cells by whole-cell plate-based electrophysiology; conditions: cho-k1
[8] = target: Voltage-gated inwardly rectifying potassium channel KCNH2 (Homo sapiens, UniProt Q12809, Y652A); assay: Inhibition of human recombinant ERG Y652A mutant expressed in CHOK1 cells by whole-cell plate-based electrophysiology; conditions: cho-k1
[9] = target: Voltage-gated inwardly rectifying potassium channel KCNH2 (Homo sapiens, UniProt Q12809, F656M); assay: Inhibition of human recombinant ERG F656M mutant expressed in CHOK1 cells by whole-cell plate-based electrophysiology; conditions: cho-k1
[10] = target: Voltage-gated inwardly rectifying potassium channel KCNH2 (Homo sapiens, UniProt Q12809, F656W); assay: Inhibition of human recombinant ERG F656W mutant expressed in CHOK1 cells by whole-cell plate-based electrophysiology; conditions: cho-k1
[11] = target: T1, Voltage-gated inwardly rectifying potassium channel KCNH2; assay: Inhibition of wild type human ERG expressed in CHOK1 cells by whole-cell plate-based electrophysiology
[12] = Apparent n-Octanol-water partition coefficient, log D at pH 7.4 by HPLC analysis

C-C chemokine receptor type 8, sequence (P51685 whole entry): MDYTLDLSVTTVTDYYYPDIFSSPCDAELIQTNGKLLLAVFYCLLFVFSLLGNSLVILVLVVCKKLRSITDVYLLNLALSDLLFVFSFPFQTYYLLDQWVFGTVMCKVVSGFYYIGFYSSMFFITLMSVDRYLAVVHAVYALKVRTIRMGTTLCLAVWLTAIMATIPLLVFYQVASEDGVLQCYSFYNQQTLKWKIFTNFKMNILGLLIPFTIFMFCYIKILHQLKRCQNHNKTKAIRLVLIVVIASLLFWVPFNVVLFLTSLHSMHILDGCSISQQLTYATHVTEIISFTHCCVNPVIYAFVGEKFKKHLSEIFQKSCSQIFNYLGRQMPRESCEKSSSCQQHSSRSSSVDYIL

SMILES | IC50 [1] [nM] | delta pIC50 wt-mutant [2] | delta pIC50 wt-mutant [3] | delta pIC50 wt-mutant [4] | delta pIC50 wt-mutant [5] | IC50 [6] [nM] | delta pIC50 wt-mutant [7] | delta pIC50 wt-mutant [8] | delta pIC50 wt-mutant [9] | delta pIC50 wt-mutant [10] | IC50 [11] [nM] | logD [12]
COc1ccccc1Oc1ccccc1CN1CCC2(CC1)CCN(C(=O)c1ccncc1)CC2 | 11.5 |  |  |  |  |  |  |  |  |  |  | 
CC1(C)Cc2cccc(CN3CCC4(CC3)CCN(C(=O)c3ncccc3N)CC4)c2O1 | 22.4 | 0.41 | 0.77 | 0.43 | 0.64 | 32400 | 1.32 | 1.81 | -0.26 | -0.32 | 4170 | 1.4
C=C(C)COc1ccccc1CN1CCC2(CC1)CCN(C(=O)c1ccncc1)CC2 | 70.8 |  |  |  |  |  |  |  |  |  |  | 1.6
O=C(c1ccncn1)N1CCC2(CCN(Cc3ccccc3Oc3ccccc3)CC2)CC1 | 141 |  |  |  |  |  |  |  |  |  |  | 2
CC1(C)CCc2cc(CN3CCC4(CC3)CCN(C(=O)c3ccc(N)cn3)CC4)ccc2O1 | 95.5 | 0.24 | -0.09 | -0.28 | 0.47 | 32400 | 1.09 | 0.83 | -0.66 | -0.35 | 19500 | 1.1
CCCC1(CC)Cc2c(CN3CCC4(CC3)CCN(C(=O)c3ccc(N)cn3)CC4)cccc2O1 (stereo not given) | 2.4 |  |  |  |  |  |  |  |  |  |  | 2.5
CC(C)COc1ccccc1CN1CCC2(CC1)CCN(C(=O)c1ccncc1)CC2 | 107 |  |  |  |  |  |  |  |  |  |  | 1.8
CC(C)COc1ccccc1CN1CCC2(CC1)CCN(C(=O)c1ccncn1)CC2 | 141 | 0.22 | 1.65 | 0.12 | -0.42 | 19100 | 0.51 | 0.7 | 0.21 | -0.42 | 4900 | -0.11
CC1(C)Cc2c(CN3CCC4(CC3)CCN(C(=O)c3ccnc(N)c3)CC4)cccc2O1 | 22.4 | 0.01 | 1.32 | -0.58 | -0.37 | 17000 | 0.55 | 0.89 | 0.14 | -0.61 | 28800 | 1.4
CC(C)(C)C1(C)Cc2c(CN3CCC4(CC3)CCN(C(=O)c3ccc(N)cn3)CC4)cccc2O1 (stereo not given) | 2.82 |  |  |  |  |  |  |  |  |  |  | 2.6
CC1Cc2cccc(CN3CCC4(CC3)CCN(C(=O)c3ccncc3)CC4)c2O1 (stereo not given) |  | 0.24 | 1.41 | -0.12 | -0.21 |  | 0.61 | 1.63 | 1.04 | -0.58 |  | 
CC1(C)CCc2cc(CN3CCC4(CC3)CCN(C(=O)c3ccncn3)CC4)ccc2O1 | 1820 | 0.39 | 0.46 | -0.39 | 0.11 |  | 0.74 | 0.82 | -0.3 | -0.14 | 11200 | 0.9
CC1(C)C=Cc2cccc(CN3CCC4(CC3)CCN(C(=O)c3ccnc(N)c3)CC4)c2O1 | 5.62 | 0.2 | 1.32 | -0.62 | 0.04 |  | 0.48 | 0.93 | 0.37 | -0.75 |  | 1.5
CC1(C)Cc2cccc(CN3CCC4(CC3)CCN(C(=O)c3ccc(N)cn3)CC4)c2O1 | 2.63 | 0.22 | 0.51 | -0.05 | 0.35 | 37200 | 0.82 | 0.83 | -0.31 | -0.99 | 43700 | 1
O=C(c1ccncc1)N1CCC2(CCN(Cc3cccc4c3OCC4)CC2)CC1 | 1480 |  |  |  |  |  |  |  |  |  |  | 0.3
COc1ccccc1Oc1ccccc1CN1CCC2(CC1)CCN(C(=O)c1ccncn1)CC2 | 14.8 |  |  |  |  |  |  |  |  |  |  | 1.2
COc1ccccc1Oc1cccc(CN2CCC3(CC2)CCN(C(=O)c2ccncn2)CC3)c1 | 4.9 | 0.44 | 0.58 | -0.3 | -0.29 |  | 0.67 | 0.98 | -0.2 | -0.15 | 1910 | 1.7
O=C(c1ccncc1)N1CCC2(CCN(Cc3ccccc3OC(F)(F)C(F)F)CC2)CC1 | 525 | 0.06 | 1.42 | -0.08 | -0.32 | 17000 | 0.11 | 1 | 0.48 | -0.54 | 5130 | 2.8
CC1(C)Cc2c(CN3CCC4(CC3)CCN(C(=O)c3ccncc3)CC4)cccc2O1 | 30.9 |  |  |  |  | 30200 |  |  |  |  | 7080 | 1.6
COc1ccccc1Oc1ccccc1CN1CCC2(CC1)CCN(C(=O)c1ccc[nH]c1=O)CC2 | 55 | 0.51 | 1.92 | 0.24 | 0.35 | 2000 | 0.54 | 1.19 | 0.22 | -0.18 | 14100 | 0.9
CC1(C)Oc2cccc(CN3CCC4(CC3)CCN(C(=O)c3ccnc(N)c3)CC4)c2O1 | 6.61 | -0.06 | 1.37 | -0.33 | -0.19 | 759 | 0.59 | 1.22 | 0.62 | -0.39 | 16600 | 1.2

Reference: ChEMBL document CHEMBL1154736, “Increasing selectivity of CC chemokine receptor 8 antagonists by engineering nondesolvation related interactions with the intended and off-target binding sites” (J Med Chem, 2009)
